# Assays:
# MKN-45 = assay: Antiproliferative activity against human MKN-45 cells assessed as reduction in cell viability after 24 hrs by CCK-8 assay; format: functional, cell-based; details: MKN-45, 24 h
# HeLa = assay: Antiproliferative activity against human HeLa cells assessed as reduction in cell viability after 24 hrs by CCK-8 assay; format: functional, cell-based
# MGC-803 = assay: Antiproliferative activity against human MGC-803 cells assessed as reduction in cell viability after 24 hrs by CCK-8 assay; format: functional, cell-based; details: MGC-803, 24 h
# [1] = Inhibition of Arylsulfatase (unknown origin) using potassium p-nitrophenyl sulfate as substrate incubated for 5 mins; set-up: species or system Homo sapiens
# HepG2 = assay: Antiproliferative activity against human HepG2 cells assessed as reduction in cell viability after 24 hrs by CCK-8 assay; format: functional, cell-based; details: HepG2, 24 h
# HCT-116 = assay: Antiproliferative activity against human HCT-116 cells assessed as reduction in cell viability after 24 hrs by CCK-8 assay; format: functional, cell-based; details: HCT-116, 24 h
# MCF7 = assay: Antiproliferative activity against human MCF7 cells assessed as reduction in cell viability after 24 hrs by CCK-8 assay; format: functional, cell-based; details: MCF7, 24 h
# Tubulin = Tubulin (Sus scrofa, UniProt P02554+P02550); assay: Inhibition of pig brain tubulin polymerization by spectrophotometric method; format: tissue-based
# [2] = Inhibition of bovine brain tubulin polymerization by spectrophotometric method; format: tissue-based, Bos taurus
compound,measurement,setting,value
COc1ccc(/C=C\c2cc(OC)c(OC)c(OC)c2)cc1OS(=O)(=O)N(C)C,IC50,MKN-45,8.95 µM
same,IC50,HeLa,14.3 µM
same,IC50,MGC-803,7.14 µM
same,IC50,[1],> 100 µM
same,IC50,HepG2,9.96 µM
same,IC50,HCT-116,0.37 µM
same,IC50,MCF7,11.1 µM
same,IC50,Tubulin,12.5 µM
COc1cc(CCc2ccc(OC(F)F)c(OS(N)(=O)=O)c2)cc(OC)c1OC,IC50,MKN-45,71.4 µM
same,IC50,HeLa,35.6 µM
same,IC50,MGC-803,23.3 µM
same,IC50,HepG2,15.9 µM
same,IC50,HCT-116,26.5 µM
same,IC50,MCF7,52.7 µM
CNS(=O)(=O)Oc1cc(/C=C\c2cc(OC)c(OC)c(OC)c2)ccc1OC,IC50,MKN-45,0.0073 µM
same,IC50,HeLa,0.0034 µM
same,IC50,MGC-803,0.0037 µM
same,IC50,[1],> 100 µM
same,IC50,HepG2,0.0039 µM
same,IC50,HCT-116,0.0113 µM
same,IC50,MCF7,0.53 µM
same,IC50,Tubulin,1.8 µM
C[C@]12CC[C@@H]3c4ccc(OS(N)(=O)=O)cc4CC[C@H]3[C@@H]1CCC2=O [EMATE],IC50,MKN-45,0.54 µM
same,IC50,HeLa,0.63 µM
same,IC50,MGC-803,0.48 µM
same,IC50,[1],5.01 µM
same,IC50,HepG2,0.85 µM
same,IC50,HCT-116,0.9 µM
same,IC50,MCF7,0.07 µM
same,IC50,Tubulin,25.9 µM
COc1cc2c(cc1O)CC[C@@H]1[C@@H]2CC[C@]2(C)[C@@H](O)CC[C@@H]12 [2-METHOXYESTRADIOL],IC50,[2],40 µM
COc1ccc(/C=C\c2cc(OC)c(OC)c(OC)c2)cc1O [COMBRETASTATIN A4],IC50,MKN-45,0.0081 µM
same,IC50,MGC-803,0.006 µM
same,IC50,[1],> 100 µM
same,IC50,HepG2,0.0029 µM
same,IC50,HCT-116,0.0047 µM
same,IC50,MCF7,0.14 µM
COc1cc(/C=C\c2ccc(OC(F)F)c(OS(N)(=O)=O)c2)cc(OC)c1OC,IC50,MKN-45,12.5 µM
same,IC50,HeLa,7.82 µM
same,IC50,MGC-803,9 µM
same,IC50,[1],4.64 µM
same,IC50,HepG2,4.81 µM
same,IC50,HCT-116,9.11 µM
same,IC50,MCF7,0.29 µM
same,IC50,Tubulin,72.6 µM
CCOc1ccc(CCc2cc(OC)c(OC)c(OC)c2)cc1OS(N)(=O)=O,IC50,MKN-45,7.67 µM
same,IC50,HeLa,2.93 µM
same,IC50,MGC-803,3.59 µM
same,IC50,HepG2,3.65 µM
same,IC50,HCT-116,10.2 µM
same,IC50,MCF7,14.8 µM
COc1ccc(/C=C\c2cc(OC)c(OC)c(OC)c2)cc1OS(N)(=O)=O,IC50,MKN-45,0.0095 µM
same,IC50,HeLa,0.0061 µM
same,IC50,MGC-803,0.0047 µM
same,IC50,[1],6.16 µM
same,IC50,HepG2,0.0036 µM
same,IC50,HCT-116,0.005 µM
same,IC50,MCF7,0.11 µM
same,IC50,Tubulin,6.6 µM
COc1ccc(/C=C/c2cc(OC)c(OC)c(OC)c2)cc1OS(N)(=O)=O,IC50,MKN-45,10.5 µM
same,IC50,HeLa,4.5 µM
same,IC50,MGC-803,2.98 µM
same,IC50,[1],12.9 µM
same,IC50,HepG2,0.87 µM
same,IC50,HCT-116,1.57 µM
same,IC50,MCF7,5.44 µM
same,IC50,Tubulin,55.7 µM
COc1cc(/C=C/c2ccc(OC(F)F)c(OS(N)(=O)=O)c2)cc(OC)c1OC,IC50,MKN-45,13.8 µM
same,IC50,HeLa,8.42 µM
same,IC50,MGC-803,9.24 µM
same,IC50,HepG2,5.54 µM
same,IC50,HCT-116,12.8 µM
same,IC50,MCF7,13.8 µM
COc1cc(/C=C/c2cccc(OS(N)(=O)=O)c2)cc(OC)c1OC,IC50,MKN-45,25 µM
same,IC50,HeLa,19 µM
same,IC50,MGC-803,27 µM
same,IC50,HepG2,11.8 µM
same,IC50,HCT-116,40.3 µM
same,IC50,MCF7,27.4 µM
CCOc1ccc(/C=C/c2cc(OC)c(OC)c(OC)c2)cc1OS(N)(=O)=O,IC50,MKN-45,8.05 µM
same,IC50,HeLa,5.64 µM
same,IC50,MGC-803,7.63 µM
same,IC50,HepG2,2.63 µM
same,IC50,HCT-116,9.12 µM
same,IC50,MCF7,13.7 µM
COc1ccc(CCc2cc(OC)c(OC)c(OC)c2)cc1OS(N)(=O)=O,IC50,MKN-45,11.9 µM
same,IC50,HeLa,9.04 µM
same,IC50,MGC-803,3.61 µM
same,IC50,[1],> 100 µM
same,IC50,HepG2,1.06 µM
same,IC50,HCT-116,2.63 µM
same,IC50,MCF7,5.91 µM
same,IC50,Tubulin,> 100 µM
COc1cc(CCc2cccc(OS(N)(=O)=O)c2)cc(OC)c1OC,IC50,MKN-45,25.7 µM
same,IC50,HeLa,27.1 µM
same,IC50,MGC-803,17.6 µM
same,IC50,HepG2,12 µM
same,IC50,HCT-116,52.5 µM
same,IC50,MCF7,> 100 µM
COc1ccc(/C=C/c2cc(OC)c(OC)c(OC)c2)cc1NS(N)(=O)=O,IC50,MKN-45,18.9 µM
same,IC50,HeLa,0.38 µM
same,IC50,MGC-803,6.19 µM
same,IC50,HepG2,7.53 µM
same,IC50,HCT-116,8.65 µM
same,IC50,MCF7,17.1 µM
COc1ccc(CCc2cc(OC)c(OC)c(OC)c2)cc1NS(N)(=O)=O,IC50,MKN-45,73.9 µM
same,IC50,HeLa,2.93 µM
same,IC50,MGC-803,8.21 µM
same,IC50,HepG2,8.1 µM
same,IC50,HCT-116,30.6 µM
same,IC50,MCF7,20.1 µM
CCOc1ccc(/C=C\c2cc(OC)c(OC)c(OC)c2)cc1OS(N)(=O)=O,IC50,MKN-45,0.32 µM
same,IC50,HeLa,0.48 µM
same,IC50,MGC-803,0.27 µM
same,IC50,[1],90.2 µM
same,IC50,HepG2,0.41 µM
same,IC50,HCT-116,0.55 µM
same,IC50,MCF7,0.3 µM
same,IC50,Tubulin,3.1 µM
COc1ccc(/C=C\c2cc(OC)c(OC)c(OC)c2)cc1NS(N)(=O)=O,IC50,MKN-45,9.56 µM
same,IC50,HeLa,0.27 µM
same,IC50,MGC-803,0.5 µM
same,IC50,[1],> 100 µM
same,IC50,HepG2,0.75 µM
same,IC50,HCT-116,3.29 µM
same,IC50,MCF7,11.2 µM
same,IC50,Tubulin,86.2 µM
COc1cc(/C=C\c2cccc(OS(N)(=O)=O)c2)cc(OC)c1OC,IC50,MKN-45,15.3 µM
same,IC50,HeLa,16.3 µM
same,IC50,MGC-803,8.53 µM
same,IC50,[1],0.47 µM
same,IC50,HepG2,9.36 µM
same,IC50,HCT-116,9.5 µM
same,IC50,MCF7,11.1 µM
same,IC50,Tubulin,> 100 µM

# — ChEMBL document CHEMBL5120740, “Design, synthesis and biological evaluation of combretastatin A-4 sulfamate derivatives as potential anti-cancer agents” (RSC Med Chem, 2021)
